Data from patent US7632815B2, “Use of calmodulin kinase II inhibitors to treat myocardial dysfunction in structural heart disease” (Vanderbilt University, priority 2001, dated 2009).
“Also recorded” adds a separate entry of the source.

Legend:
[1] = test system: mice after myocardial infarction surgery; experiment: Echocardiography 3 weeks after myocardial infarction surgery; type: in vivo, mouse; settings: for LV internal diameter (LVID) during diastole / LV posterior wall (LVPW) wall thickness in diastole: between groups (KN-93 1 and 10, KN-92 30 μmol/Kg, AC3-I transgenic, WT); for cardiac hypertrophy / myocardial contractility (positive inotropic effect): FIG. 7; for Left ventricular (LV) fractional shortening: unanesthetized mice, vs WT or KN-92 30 μmol/Kg
From the text: FIGS. 7 A-D. CaMKII inhibition improves contractile function after myocardial infarction surgery. […] P<0.001 by ANOVA and asterisks indicate a significant difference compared to WT using a Bonferroni-corrected t test. B. LV internal diameter (LVID) during diastole is a marker of LV chamber dilation. […] C. LV posterior wall (LVPW) wall thickness in diastole is a measure of LV hypertrophy of the non-infarcted wall.
Myocardial infarction surgery: Surgery is routinely performed at the Vanderbilt mouse physiology core laboratory and is essentially identical to other published reports^18 8.^14 In brief, mice are anesthetized (pentobarbital 33 μg/g and ketamine 33 μg/g, i.p.) and placed on a rodent respirator (tidal vol. 0.5 ml, rate 120 breaths/min), the chest opened with a left parasternal thoracotomy, and the region of the mid-left anterior descending artery ligated with 8-0 suture. The chest is closed (running 5-0 suture), and the animal weaned from the respirator. Wild-type mice typically develop heart failure, as assessed by increased lung wet:dry weights. Sham operations omit the ligation step. Approximately 75% of animals survive surgery with a successfully infarcted anterior wall.

CaMKII isoforms = settings: cited from earlier work
transgenic mice = experiment: Baseline echocardiography of transgenic mice; type: in vivo, mouse
CAN+ transgenic mice = experiment: Echocardiography in calcineurin (CAN+) transgenic dilated cardiomyopathy model; settings: AC3-I+/CAN+ vs CAN+ mice
protein kinase C = settings: cited from earlier work
CaMKII [2] = experiment: CaMKII activity assay in heart homogenate with syntide 2; type: in vivo, mouse
Description: CaMKII activity assays: CaMKII activity was assayed in AC3-I mice and littermate controls from whole heart (ventricular) homogenate with syntide 2-a synthetic substrate with ˜50 fold selectivity for CaMKII over CaMKIV,^9 using our previously published methods.^1

protein kinase A = settings: cited from earlier work
CaMKII [3] = experiment: CaMKII inhibitory potency against a synthetic CaMKII substrate; type: biochemical; settings: 'previous studies'
[4] = diastole or systole, AC3-I transgenic vs WT littermates

COc1ccc(S(=O)(=O)N(CCO)c2ccccc2CN(C)C/C=C/c2ccc(Cl)cc2)cc1 [KN-93]
LV internal diameter (LVID) during diastole ([1]; 3 weeks after MI surgery): No significant differences
LV posterior wall (LVPW) wall thickness in diastole ([1]; 3 weeks after MI surgery): No significant differences
cardiac hypertrophy [1]: without affecting
myocardial contractility (positive inotropic effect) [1]: increase
Left ventricular (LV) fractional shortening ([1]; KN-93 1 μmol/Kg body weight daily, 3 weeks after MI surgery): significantly greater
Left ventricular (LV) fractional shortening ([1]; KN-93 10 μmol/Kg body weight daily, 3 weeks after MI surgery): significantly greater

KKALHRQEAVDCL [AC3-I]
inhibition of CaMKII isoforms (CaMKII isoforms): inhibits all CaMKII isoforms
Left ventricular fractional shortening (transgenic mice; baseline, AC3-I transgenic vs WT littermates): not different
Echocardiographic left ventricular dimensions (transgenic mice; [4]): not significantly different
Interventricular septal thickness (transgenic mice; [4]): not different
heart rates (CAN+ transgenic mice): no significant differences
activity against protein kinase C (protein kinase C): virtually devoid of activity
total CaMKII activity (CaMKII [2]; ventricular homogenates, compared to AC3-C mice and WT littermates): significantly reduced
cardiac CaMKII activity (CaMKII [2]; whole heart homogenates, AC3-I transgenic mice vs WT littermates): significantly reduced
activity against protein kinase A (protein kinase A): virtually devoid of activity
IC50 (CaMKII [3]): 500 nM
Heart rate ([1]; 3 weeks after MI surgery, AC3-I transgenic compared to all other groups): significantly slower
LV internal diameter (LVID) during diastole ([1]; 3 weeks after MI surgery): No significant differences
LV posterior wall (LVPW) wall thickness in diastole ([1]; 3 weeks after MI surgery): No significant differences
cardiac hypertrophy [1]: without affecting
myocardial contractility (positive inotropic effect) [1]: increase
Left ventricular fractional shortening ([1]; transgenically targeted AC3-I expression, after MI surgery, vs WT littermates): significantly better; also recorded: significantly greater

COc1ccc(S(=O)(=O)Nc2ccccc2CN(C)C/C=C/c2ccc(Cl)cc2)cc1 [KN-92]
LV internal diameter (LVID) during diastole ([1]; 3 weeks after MI surgery): No significant differences
LV posterior wall (LVPW) wall thickness in diastole ([1]; 3 weeks after MI surgery): No significant differences

KLKALHAQERVDCL [AC3-C]
Left ventricular fractional shortening (transgenic mice; AC3-C transgenic compared to AC3-I mice): significantly depressed
left ventricular internal diameter (LVID) in diastole (transgenic mice; AC3-C transgenic vs AC3-I mice): significantly greater
total CaMKII activity (CaMKII [2]; AC3-C transgenic mice, FIG. 6): high
